Laboratory results from BindingDB's records for doi:10.1021/jm960455s (Bristol-Myers Squibb Pharmaceutical Research Institute, 1997).
Non-standard residues stand in square brackets, D forms with d. Residues, ends and D or L forms follow the SMILES beside them. *: point of attachment. Phe(4-guanidino) = N=C(N)Nc1ccc(C[CH](N)C(=O)O)cc1; Phe(4-F) = N[CH](Cc1ccc(F)cc1)C(=O)O; 2Nal = N[C@@H](Cc1ccc2ccccc2c1)C(=O)O; Benzoyl(4-Cl) = O=C(c1ccc(Cl)cc1)*; X5 = O=C(c1cc2ccccc2[nH]1)*; βAla = NCCC(=O)O

Columns and labels:
[1] = Effective concentration for stimulation of platelet aggregation
[2] = Concentration of compound required to inhibit agonist (SFLLRNP-NH2, at 3 uM) induced platelet aggregation by 50%
[3] = as above; remark: listed apart in the source

| SMILES | EC50 [1] [µM] | other results |
| --- | --- | --- |
| CC(=O)N(C(=O)C=Cc1cccc(Cl)c1)C(Cc1ccc(F)cc1)C(=O)NC(Cc1ccc(N=C(N)N)cc1)C(=O)NC(CC(C)C)C(=O)NC(CCCNC(=N)N)C(N)=O (stereo not drawn) [2-[2-[2-{Acetyl-[(E)-3-(3-chloro-phenyl)-acryloyl]-amino}-3-(4-fluoro-phenyl)-propionylamino]-3-(4-guanidino-phenyl)-propionylamino]-4-methyl-pentanoic acid (1-carbamoyl-4-guanidino-butyl)-amide] | – | IC50 [2]: 0.08 µM |
| CC(=O)N(C(=O)C=Cc1ccccc1)C(Cc1ccc(F)cc1)C(=O)NC(Cc1ccc(N)cc1)C(=O)NC(CC(C)C)C(=O)NC(CCCNC(=N)N)C(N)=O (stereo not drawn) [2-[2-[2-{Acetyl-[(E)-(3-phenyl-acryloyl)]-amino}-3-(4-fluoro-phenyl)-propionylamino]-3-(4-amino-phenyl)-propionylamino]-4-methyl-pentanoic acid (1-carbamoyl-4-guanidino-butyl)-amide] | 60 | – |
| CC(=O)N(C(=O)C=Cc1ccccc1)C(Cc1ccc(F)cc1)C(=O)NC(=O)NCCCC(NC(=O)C(CC(C)C)NC(=O)C(N)CCCNC(=N)N)C(=O)O (stereo not drawn) [5-{3-[2-{Acetyl-[(E)-(3-phenyl-acryloyl)]-amino}-3-(4-fluoro-phenyl)-propionyl]-ureido}-2-[2-(2-amino-5-guanidino-pentanoylamino)-4-methyl-pentanoylamino]-pentanoic acid] | 67 | – |
| CC(=O)N(C(=O)c1ccc(-c2ccccc2)cc1)C(Cc1ccc(F)cc1)C(=O)NC(Cc1ccc(N=C(N)N)cc1)C(=O)NC(CC(C)C)C(=O)NC(CCCNC(=N)N)C(N)=O (stereo not drawn) [Biphenyl-4-carboxylic acid acetyl-[1-[1-[1-(1-carbamoyl-4-guanidino-butylcarbamoyl)-3-methyl-butylcarbamoyl]-2-(4-guanidino-phenyl)-ethylcarbamoyl]-2-(4-fluoro-phenyl)-ethyl]-amide] | – | IC50 [3]: 0.43 µM |
| CC(C)CC(NC(=O)C(Cc1ccc(N=C(N)N)cc1)NC(=O)C(Cc1ccc(F)cc1)NC(=O)c1ccc(Cl)cc1)C(=O)NC(CCCNC(=N)N)C(N)=O (stereo not drawn) [N-[1-[1-[1-(1-Carbamoyl-4-guanidino-butylcarbamoyl)-3-methyl-butylcarbamoyl]-2-(4-guanidino-phenyl)-ethylcarbamoyl]-2-(4-fluoro-phenyl)-ethyl]-4-chloro-benzamide] ({Benzoyl(4-Cl)}-[Phe(4-F)][Phe(4-guanidino)]LR-NH2; configuration not given here) | 3.7 | – |

Now from value to molecule, other results behind:

| EC50 [1] [µM] | SMILES | other results |
| --- | --- | --- |
| 0.72 | COc1ccc(C[C@H](NC(=O)[C@@H](N)CO)C(=O)N[C@@H](CC(C)C)C(=O)N[C@@H](CC(C)C)C(=O)N[C@@H](CCCN=C(N)N)C(N)=O)cc1 | – |
| 1.8 | CC(C)CC(NC(=O)C(Cc1ccc(N=C(N)N)cc1)NC(=O)C(Cc1ccc(F)cc1)NC(=O)c1cc2ccccc2[nH]1)C(=O)NC(CCCNC(=N)N)C(N)=O (stereo not drawn) [1H-Indole-2-carboxylic acid [1-[1-[1-(1-carbamoyl-4-guanidino-butylcarbamoyl)-3-methyl-butylcarbamoyl]-2-(4-guanidino-phenyl)-ethylcarbamoyl]-2-(4-fluoro-phenyl)-ethyl]-amide] (X5-[Phe(4-F)][Phe(4-guanidino)]LR-NH2; configuration not given here) | – |
| 0.27 | CC(=O)NCCC(=O)N[C@@H](Cc1ccc(F)cc1)C(=O)N[C@@H](Cc1ccc2ccccc2c1)C(=O)N[C@@H](CC(C)C)C(=O)N[C@@H](CCCN=C(N)N)C(N)=O [2-{(R)-2-[2-(3-Acetylamino-propionylamino)-3-(4-fluoro-phenyl)-propionylamino]-3-naphthalen-2-yl-propionylamino}-4-methyl-pentanoic acid (1-carbamoyl-4-guanidino-butyl)-amide] (Ac-[βAla][Phe(4-F)][2Nal]LR-NH2) | – |
